Results as given in ChEMBL document CHEMBL5696442, “Discovery of type II inhibitors of TGFβ-activated kinase 1 (TAK1) and mitogen-activated protein kinase kinase kinase kinase 2 (MAP4K2)” (J Med Chem, 2015).
Active and inactive are the calls of the source. No cut-off for these calls is given here.

Assays:
[1] = target: T1, Serine/threonine-protein kinase Nek9 (Homo sapiens) (UniProt Q8TD19); assay: Inhibition of NEK9 Lys2 labeling site in human Huh-7 cells at 1 uM by KiNativ Profiling analysis relative to control; format: cell-based
T1 sequence (whole entry): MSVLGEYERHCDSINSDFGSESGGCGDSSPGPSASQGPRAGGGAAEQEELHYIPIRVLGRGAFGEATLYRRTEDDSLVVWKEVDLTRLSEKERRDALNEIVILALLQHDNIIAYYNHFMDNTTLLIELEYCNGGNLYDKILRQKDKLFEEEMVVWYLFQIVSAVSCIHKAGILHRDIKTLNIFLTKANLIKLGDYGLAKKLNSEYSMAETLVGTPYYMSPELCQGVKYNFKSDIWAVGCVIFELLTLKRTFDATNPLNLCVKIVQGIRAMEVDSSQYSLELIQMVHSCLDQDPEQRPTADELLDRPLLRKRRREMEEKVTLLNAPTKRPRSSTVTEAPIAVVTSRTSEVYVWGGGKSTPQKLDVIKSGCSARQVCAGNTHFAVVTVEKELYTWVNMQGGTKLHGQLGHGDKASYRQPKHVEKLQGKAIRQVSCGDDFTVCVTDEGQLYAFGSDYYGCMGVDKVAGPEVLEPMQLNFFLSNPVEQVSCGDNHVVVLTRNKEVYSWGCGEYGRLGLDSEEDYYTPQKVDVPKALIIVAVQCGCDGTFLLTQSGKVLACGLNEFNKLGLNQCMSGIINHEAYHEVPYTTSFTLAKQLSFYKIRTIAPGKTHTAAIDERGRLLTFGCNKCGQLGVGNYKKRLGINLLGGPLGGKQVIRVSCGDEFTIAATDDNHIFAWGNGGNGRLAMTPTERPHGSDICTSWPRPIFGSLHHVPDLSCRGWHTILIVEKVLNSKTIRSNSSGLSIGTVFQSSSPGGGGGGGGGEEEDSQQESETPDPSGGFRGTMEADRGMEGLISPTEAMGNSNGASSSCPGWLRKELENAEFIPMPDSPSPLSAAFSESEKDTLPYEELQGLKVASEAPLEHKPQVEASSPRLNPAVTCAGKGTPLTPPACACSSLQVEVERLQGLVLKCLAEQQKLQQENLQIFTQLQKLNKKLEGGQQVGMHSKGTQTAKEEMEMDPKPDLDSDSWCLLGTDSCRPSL

[2] = target: Protein kinase C alpha type (Homo sapiens) (UniProt P17252); assay: Inhibition of PKCa Lys2 labeling site in human Huh-7 cell lysate at 1 uM by KiNativ Profiling analysis relative to control; format: subcellular
[3] = target: Serine/threonine-protein kinase Nek7 (Homo sapiens) (UniProt Q8TDX7); assay: Inhibition of NEK7 K1 labeling site in human Huh-7 cells at 10 uM by KiNativ Profiling analysis relative to control; format: cell-based
[4] = target: RPS6KA1/RPS6KA2/RPS6KA3 (Homo sapiens) (UniProt P51812+Q15349+Q15418); assay: Inhibition of RSK1/2/3 Domain 1 K2 labeling site harbouring DLKPENILLDEEGHIKLTDFGLSK in human Huh-7 cells at 10 uM by KiNativ Profiling analysis relative to control; format: cell-based
[5] = system: Phosphatidylinositol 4,5-bisphosphate 3-kinase catalytic subunit alpha isoform (Homo sapiens), P42336 [E545K]; assay: Inhibition of PIK3CA E545K mutant (unknown origin) at 10 uM by Ambit Kinomescan binding assay
[6] = target: Ribosomal protein S6 kinase alpha-1 (Homo sapiens) (UniProt Q15418); assay: Inhibition of RSK1 Domain 1 ACT labeling site harbouring LTDFGLSKEAIDHEKK in human Huh-7 cells at 1 uM by KiNativ Profiling analysis relative to control; format: cell-based
[7] = target: Serine/threonine-protein kinase PAK 4 (Homo sapiens) (UniProt O96013); assay: Inhibition of PAK4 (unknown origin) at 10 uM by Ambit Kinomescan binding assay
[8] = target: Serine/threonine-protein kinase N2 (Homo sapiens) (UniProt Q16513); assay: Inhibition of PKN2 Lys2 labeling site in human A-375 cells at 0.05 uM by KiNativ Profiling analysis relative to control; format: cell-based
[9] = target: Tyrosine-protein kinase Fer (Homo sapiens, UniProt P16591); assay: Inhibition of FER (unknown origin) at 1 uM by Ambit Kinomescan binding assay relative to control; values are per cent of control
[10] = target: Insulin receptor (Homo sapiens) (UniProt P06213); assay: Inhibition of INSR (unknown origin) at 1 uM by Ambit Kinomescan binding assay relative to control; values are per cent of control
[11] = target: T2, Inhibitor of nuclear factor kappa-B kinase subunit epsilon (Homo sapiens) (UniProt Q14164); assay: Inhibition of IKK-epsilon (unknown origin) at 1 uM by Ambit Kinomescan binding assay relative to control; values are per cent of control
T2 sequence (whole entry): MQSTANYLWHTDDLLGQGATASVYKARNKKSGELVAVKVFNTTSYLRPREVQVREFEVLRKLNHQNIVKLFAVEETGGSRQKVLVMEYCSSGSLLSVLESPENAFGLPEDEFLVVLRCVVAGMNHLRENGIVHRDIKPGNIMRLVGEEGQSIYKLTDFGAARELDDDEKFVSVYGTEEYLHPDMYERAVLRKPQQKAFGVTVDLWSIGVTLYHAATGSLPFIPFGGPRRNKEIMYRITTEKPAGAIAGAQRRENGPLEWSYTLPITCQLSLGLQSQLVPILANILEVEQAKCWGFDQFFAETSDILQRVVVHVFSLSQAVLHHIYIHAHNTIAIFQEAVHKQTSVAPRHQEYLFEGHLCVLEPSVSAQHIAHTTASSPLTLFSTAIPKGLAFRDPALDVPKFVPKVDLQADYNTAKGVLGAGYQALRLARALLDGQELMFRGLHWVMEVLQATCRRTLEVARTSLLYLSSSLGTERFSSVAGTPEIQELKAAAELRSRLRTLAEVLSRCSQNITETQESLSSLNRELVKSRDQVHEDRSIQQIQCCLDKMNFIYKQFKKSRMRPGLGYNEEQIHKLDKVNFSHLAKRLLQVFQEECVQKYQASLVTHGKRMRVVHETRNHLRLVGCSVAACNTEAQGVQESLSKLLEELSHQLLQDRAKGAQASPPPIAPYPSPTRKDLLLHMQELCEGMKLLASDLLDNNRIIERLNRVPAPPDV

[12] = system: Tyrosine-protein kinase ABL1 (Homo sapiens), P00519 [H396P]; assay: Inhibition of nonphosphorylated ABL1 H396P mutant (unknown origin) at 1 uM by Ambit Kinomescan binding assay relative to control
[13] = system: Receptor-type tyrosine-protein kinase FLT3 (Homo sapiens), P36888 [R834Q]; assay: Inhibition of FLT3 R834Q mutant (unknown origin) at 1 uM by Ambit Kinomescan binding assay relative to control; values are per cent of control
[14] = target: Serine/threonine-protein kinase 24 (Homo sapiens) (UniProt Q9Y6E0); assay: Inhibition of MST3 ACT labeling site in human A-375 cells at 0.05 uM by KiNativ Profiling analysis relative to control; format: cell-based
Chain of Serine/threonine-protein kinase 24 (Homo sapiens) (Q9Y6E0 whole entry, looked up): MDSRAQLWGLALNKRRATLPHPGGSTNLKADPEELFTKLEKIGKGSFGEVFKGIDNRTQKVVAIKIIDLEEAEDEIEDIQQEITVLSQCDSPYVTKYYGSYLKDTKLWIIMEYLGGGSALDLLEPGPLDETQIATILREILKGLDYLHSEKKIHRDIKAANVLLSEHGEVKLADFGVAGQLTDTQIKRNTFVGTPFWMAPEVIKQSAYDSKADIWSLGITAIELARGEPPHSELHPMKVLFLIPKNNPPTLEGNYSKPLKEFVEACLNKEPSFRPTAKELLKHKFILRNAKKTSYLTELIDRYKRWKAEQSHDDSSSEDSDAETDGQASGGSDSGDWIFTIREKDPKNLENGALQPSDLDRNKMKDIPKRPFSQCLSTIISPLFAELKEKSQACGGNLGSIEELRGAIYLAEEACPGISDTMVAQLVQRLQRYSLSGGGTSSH

Chain of Serine/threonine-protein kinase Nek7 (Homo sapiens) (Q8TDX7 whole entry, looked up): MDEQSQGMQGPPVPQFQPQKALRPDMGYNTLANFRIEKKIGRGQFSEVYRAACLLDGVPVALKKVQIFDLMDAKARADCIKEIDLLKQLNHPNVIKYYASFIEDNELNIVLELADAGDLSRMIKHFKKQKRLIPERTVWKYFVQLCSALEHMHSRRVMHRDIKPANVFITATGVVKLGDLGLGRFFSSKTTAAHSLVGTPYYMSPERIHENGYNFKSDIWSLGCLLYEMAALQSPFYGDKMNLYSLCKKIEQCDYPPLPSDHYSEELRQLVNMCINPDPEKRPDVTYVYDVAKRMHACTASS
Chain of RPS6KA1/RPS6KA2/RPS6KA3 (Homo sapiens) (P51812 whole entry, looked up, canonical isoform): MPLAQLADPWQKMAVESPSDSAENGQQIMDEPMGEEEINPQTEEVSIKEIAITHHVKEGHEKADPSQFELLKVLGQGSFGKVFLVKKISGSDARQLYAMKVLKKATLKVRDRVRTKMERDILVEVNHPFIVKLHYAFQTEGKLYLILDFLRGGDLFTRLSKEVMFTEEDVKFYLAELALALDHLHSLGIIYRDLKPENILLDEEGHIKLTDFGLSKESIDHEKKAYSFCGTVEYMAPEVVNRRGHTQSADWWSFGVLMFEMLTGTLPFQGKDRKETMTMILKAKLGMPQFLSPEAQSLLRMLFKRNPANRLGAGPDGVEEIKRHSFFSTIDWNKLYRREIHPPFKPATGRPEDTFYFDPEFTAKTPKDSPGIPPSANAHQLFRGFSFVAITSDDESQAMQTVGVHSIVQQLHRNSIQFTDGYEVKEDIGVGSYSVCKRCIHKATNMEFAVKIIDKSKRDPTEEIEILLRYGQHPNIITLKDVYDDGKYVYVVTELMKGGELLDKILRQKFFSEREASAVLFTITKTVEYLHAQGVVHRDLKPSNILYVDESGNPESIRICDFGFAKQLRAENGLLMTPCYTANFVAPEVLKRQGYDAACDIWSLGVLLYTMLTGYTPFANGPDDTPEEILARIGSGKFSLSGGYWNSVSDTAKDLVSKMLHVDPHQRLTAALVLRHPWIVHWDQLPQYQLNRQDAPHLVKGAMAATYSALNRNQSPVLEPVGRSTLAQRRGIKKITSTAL
Chain of RPS6KA1/RPS6KA2/RPS6KA3 (Homo sapiens) (Q15349 whole entry, looked up, canonical isoform): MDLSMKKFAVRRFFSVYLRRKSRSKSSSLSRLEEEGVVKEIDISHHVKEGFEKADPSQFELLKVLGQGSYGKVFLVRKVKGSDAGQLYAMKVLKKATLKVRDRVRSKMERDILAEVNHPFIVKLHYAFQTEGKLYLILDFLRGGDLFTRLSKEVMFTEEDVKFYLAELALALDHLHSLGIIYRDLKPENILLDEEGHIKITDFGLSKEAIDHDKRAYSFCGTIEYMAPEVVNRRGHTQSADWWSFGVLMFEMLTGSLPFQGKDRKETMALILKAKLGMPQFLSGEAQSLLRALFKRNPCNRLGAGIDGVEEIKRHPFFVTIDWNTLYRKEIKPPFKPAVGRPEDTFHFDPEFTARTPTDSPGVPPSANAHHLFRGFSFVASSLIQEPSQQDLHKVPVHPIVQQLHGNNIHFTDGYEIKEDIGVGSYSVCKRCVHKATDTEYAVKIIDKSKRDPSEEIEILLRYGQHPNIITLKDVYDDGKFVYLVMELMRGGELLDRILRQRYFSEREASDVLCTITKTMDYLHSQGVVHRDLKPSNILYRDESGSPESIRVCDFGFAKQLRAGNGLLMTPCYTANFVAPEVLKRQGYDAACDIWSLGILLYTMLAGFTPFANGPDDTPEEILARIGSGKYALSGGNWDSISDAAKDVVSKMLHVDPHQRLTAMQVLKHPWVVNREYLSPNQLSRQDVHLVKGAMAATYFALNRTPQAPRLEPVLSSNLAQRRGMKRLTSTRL
Chain of RPS6KA1/RPS6KA2/RPS6KA3 (Homo sapiens) (Q15418 whole entry, looked up, canonical isoform): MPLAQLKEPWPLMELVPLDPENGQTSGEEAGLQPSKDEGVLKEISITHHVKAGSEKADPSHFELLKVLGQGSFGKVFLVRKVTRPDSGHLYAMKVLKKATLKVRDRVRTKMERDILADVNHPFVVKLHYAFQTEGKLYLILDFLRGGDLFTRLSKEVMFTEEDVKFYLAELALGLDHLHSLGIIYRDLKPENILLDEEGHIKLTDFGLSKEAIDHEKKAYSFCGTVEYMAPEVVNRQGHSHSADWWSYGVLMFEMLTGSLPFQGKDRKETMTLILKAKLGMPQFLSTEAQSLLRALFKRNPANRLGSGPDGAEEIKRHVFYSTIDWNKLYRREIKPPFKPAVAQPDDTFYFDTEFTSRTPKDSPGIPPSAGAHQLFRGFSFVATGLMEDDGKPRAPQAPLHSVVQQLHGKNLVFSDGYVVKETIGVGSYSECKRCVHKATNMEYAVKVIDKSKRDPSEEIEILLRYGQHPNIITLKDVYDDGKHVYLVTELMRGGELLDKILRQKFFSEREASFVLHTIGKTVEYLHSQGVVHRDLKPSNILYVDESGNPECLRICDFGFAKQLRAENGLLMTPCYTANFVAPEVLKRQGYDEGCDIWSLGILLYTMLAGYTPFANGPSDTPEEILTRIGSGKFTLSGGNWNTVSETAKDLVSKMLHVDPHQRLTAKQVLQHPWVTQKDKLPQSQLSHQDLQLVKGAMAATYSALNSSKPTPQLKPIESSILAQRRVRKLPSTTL
Chain of Ribosomal protein S6 kinase alpha-1 (Homo sapiens) (Q15418 whole entry, the tested form may be a part): as the sequence (Q15418 whole entry, looked up, canonical isoform) above
Chain of Phosphatidylinositol 4,5-bisphosphate 3-kinase catalytic subunit alpha isoform (Homo sapiens), P42336 [E545K] (P42336 whole entry E545K, the tested form may be a part, canonical isoform): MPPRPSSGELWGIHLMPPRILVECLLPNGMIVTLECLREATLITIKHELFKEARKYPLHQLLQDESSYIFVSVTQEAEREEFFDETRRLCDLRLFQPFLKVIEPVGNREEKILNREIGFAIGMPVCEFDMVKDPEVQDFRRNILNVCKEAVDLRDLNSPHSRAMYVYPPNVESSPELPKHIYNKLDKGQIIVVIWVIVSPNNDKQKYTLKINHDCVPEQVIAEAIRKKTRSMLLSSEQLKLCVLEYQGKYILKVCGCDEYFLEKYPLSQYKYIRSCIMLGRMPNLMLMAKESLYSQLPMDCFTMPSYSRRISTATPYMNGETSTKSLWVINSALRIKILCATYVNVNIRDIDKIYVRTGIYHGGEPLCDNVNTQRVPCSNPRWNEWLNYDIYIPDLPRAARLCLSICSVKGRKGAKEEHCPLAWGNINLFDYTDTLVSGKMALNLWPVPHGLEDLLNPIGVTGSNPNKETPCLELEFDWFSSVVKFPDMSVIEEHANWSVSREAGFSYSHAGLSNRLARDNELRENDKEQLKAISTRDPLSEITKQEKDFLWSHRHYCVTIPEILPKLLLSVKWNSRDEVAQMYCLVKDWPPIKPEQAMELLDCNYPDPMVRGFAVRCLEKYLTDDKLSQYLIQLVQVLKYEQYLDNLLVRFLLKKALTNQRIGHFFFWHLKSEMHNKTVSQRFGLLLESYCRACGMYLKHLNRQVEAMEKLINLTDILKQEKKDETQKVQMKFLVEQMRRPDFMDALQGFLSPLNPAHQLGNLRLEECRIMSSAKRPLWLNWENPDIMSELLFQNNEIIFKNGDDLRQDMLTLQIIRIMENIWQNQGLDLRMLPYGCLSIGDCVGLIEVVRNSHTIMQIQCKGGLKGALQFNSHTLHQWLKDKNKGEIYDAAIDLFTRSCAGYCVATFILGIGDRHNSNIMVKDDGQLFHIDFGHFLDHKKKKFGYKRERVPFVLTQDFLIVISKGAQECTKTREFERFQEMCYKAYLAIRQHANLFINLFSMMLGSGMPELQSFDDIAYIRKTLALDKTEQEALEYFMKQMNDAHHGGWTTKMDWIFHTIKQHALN

Question: CNc1cc(Oc2cc(C(=O)Nc3cc(N4CCN(C)CC4)cc(C(F)(F)F)c3)ccc2C)ncn1 was tested. Which inhibition [1] did it give?
Answer: -4.9%

Question: And the inhibition [2]?
Answer: -1.2%

Question: What does the source list for CCN1CCN(Cc2ccc(NC(=O)c3ccc(C)c(Oc4ccnc5[nH]ccc45)c3)cc2C(F)(F)F)CC1?
Answer: inhibition [3]: -8.8%; inhibition [4]: -6.5%; inhibition [5]: inactive; inhibition [6]: 6.9%; inhibition [7]: inactive; inhibition [8]: 5.3%

Question: For CCN1CCN(Cc2ccc(NC(=O)c3ccc(C)c(/C=C/c4cnc5[nH]ccc5c4OC)c3)cc2C(F)(F)F)CC1, which residual activity [9] is on record?
Answer: 21%

Question: What about the residual activity [10] of the same compound?
Answer: 78%

Question: What about the residual activity [11] of the same compound?
Answer: 100%

Question: And the inhibition [12]?
Answer: 0%

Question: What about the residual activity [13] of the same compound?
Answer: 7.4%

Question: What about the inhibition [14] of the same compound?
Answer: 13.5%
